Activity calls are given as the source filed them. No cut-off for these calls is given here.
Columns and labels:
[1] = Cell cycle arrest in HGC27 cells assessed as accumulation at G0/G1 phase after 24 hrs at 5 uM by propidium idoide staining based flow cytometric analysis; type: functional; settings: Homo sapiens, HGC-27
[2] = tested on: HGC-27; assay: Induction of apoptosis in HGC27 cells assessed as apoptotic cells at 2.5 uM after 24 hrs by Annexin-V-FITC/propidium iodide staining-based flow cytometry (reference value: 6.7%); type: functional, Homo sapiens
[3] = tested on: HGC-27; assay: Induction of autophagy in HGC27 cells assessed as increase in LC3-2 level after 24 hrs by Western blotting method in presence of lysosomal dysfunction inducer PI; type: functional, cell-based; settings: Homo sapiens
[4] = tested on: HGC-27; assay: Induction of apoptosis in HGC27 cells assessed as apoptotic cells at 1 uM after 24 hrs by Annexin-V-FITC/propidium iodide staining-based flow cytometry (reference value: 6.7%); type: functional, Homo sapiens
[5] = (§1) Cytotoxicity against HGC27 cells after 24 hrs by MTT assay; type: functional, cell-based; settings: Homo sapiens, HGC-27, 24 h
[6] = tested on: HGC-27; assay: as §1; type: functional, cell-based; settings: Homo sapiens
[7] = Cell cycle arrest in HGC27 cells assessed as decrease in G2/M phase population after 24 hrs at 5 uM by propidium idoide staining based flow cytometric analysis; type: functional; settings: Homo sapiens, HGC-27
[8] = tested on: HEK293; assay: Cytotoxicity against HEK293 cells by MTT assay; type: cell-based; settings: Homo sapiens
[9] = tested on: HGC-27; assay: Induction of apoptosis in HGC27 cells at 2 uM co-treated with autophagy inhibitor 3-MA after 24 hrs by Annexin-V-FITC/propidium iodide staining-based flow cytometry; type: functional, cell-based; settings: Homo sapiens
[10] = tested on: HGC-27; assay: Induction of reactive oxygen species formation in HGC27 cells at 1.4 to 24 uM after 5 hrs using DCFH-DA probe by spectrofluorimetry; type: functional, cell-based; settings: Homo sapiens
[11] = tested on: HGC-27; assay: Induction of autophagy in HGC27 cells assessed as increase in LC3-2 level after 24 hrs by Western blotting method; type: functional, cell-based; settings: Homo sapiens
[12] = tested on: HGC-27; assay: Induction of apoptosis in HGC27 cells assessed as necrotic cells at 8 uM after 24 hrs in presence of cathepsin-B inhibitor-3 by Annexin-V-FITC/propidium iodide staining-based flow cytometry; type: functional, cell-based; settings: Homo sapiens
[13] = tested on: Vero; assay: Cytotoxicity against African green monkey Vero cells assessed as cellular ATP level after 24 hrs by SRB assay; type: cell-based; settings: Chlorocebus sabaeus
[14] = Cytotoxicity against HGC27 cells after 48 hrs by MTT assay; type: functional, cell-based; settings: Homo sapiens, HGC-27, 48 h
[15] = tested on: HGC-27; assay: Induction of apoptosis in HGC27 cells assessed as apoptotic cells at 8 uM after 24 hrs by Annexin-V-FITC/propidium iodide staining-based flow cytometry (reference value: 6.7%); type: functional, Homo sapiens
[16] = tested on: HGC-27; assay: Induction of apoptosis in HGC27 cells assessed as apoptotic cells after 24 hrs by Annexin-V-FITC/propidium iodide staining-based flow cytometry; type: functional, cell-based; settings: Homo sapiens
[17] = tested on: HeLa; assay: Cytotoxicity against human HeLa cells assessed as inhibition of cell viability at 20 uM after 24 hrs by MTT assay; type: functional, cell-based
[18] = tested on: HGC-27; assay: Induction of apoptosis in HGC27 cells at 8 uM after 24 hrs in presence of pan-caspase inhibitor Z-VAD-FMK by Annexin-V-FITC/propidium iodide staining-based flow cytometry; type: functional, cell-based; settings: Homo sapiens
[19] = tested on: HGC-27; assay: Induction of apoptosis in HGC27 cells assessed as increase in necrotic cells at 2 uM co-treated with autophagy inhibitor chloroquine after 24 hrs by Annexin-V-FITC/propidium iodide staining-based flow cytometry; type: functional, cell-based; settings: Homo sapiens
[20] = tested on: HGC-27; assay: Induction of apoptosis in HGC27 cells assessed as necrotic cells at 8 uM after 24 hrs in presence of RIP1 inhibitor necrostatin-1 by Annexin-V-FITC/propidium iodide staining-based flow cytometry; type: functional, cell-based; settings: Homo sapiens
[21] = tested on: HGC-27; assay: Induction of apoptosis in HGC27 cells at 8 uM after 24 hrs in presence of caspase 8 inhibitor Z-IETD-FMK by Annexin-V-FITC/propidium iodide staining-based flow cytometry; type: functional, cell-based; settings: Homo sapiens
[22] = tested on: MDCK; assay: Cytotoxicity against MDCK cells assessed as cellular ATP level after 24 hrs by SRB assay; type: cell-based; settings: Canis lupus familiaris
[23] = Cytotoxicity against human U87 cells by MTT assay; type: functional, cell-based, U-87MG ATCC; settings: U-87 MG
[24] = Cell cycle arrest in HGC27 cells assessed as decrease in S-phase population after 24 hrs at 5 uM by propidium idoide staining based flow cytometric analysis; type: functional; settings: Homo sapiens, HGC-27
[25] = tested on: Vero; assay: Cytotoxicity against African green monkey Vero cells by MTT assay; type: cell-based; settings: Chlorocebus sabaeus
[26] = tested on: HGC-27; assay: Induction of apoptosis in HGC27 cells at 2 uM co-treated with autophagy inhibitor chloroquine after 24 hrs by Annexin-V-FITC/propidium iodide staining-based flow cytometry; type: functional, cell-based; settings: Homo sapiens
[27] = tested on: MDCK; assay: Cytotoxicity against MDCK cells by MTT assay; type: cell-based; settings: Canis lupus familiaris
[28] = tested on: HGC-27; assay: Induction of apoptosis in HGC27 cells at 8 uM after 24 hrs in presence of caspase 9 inhibitor Z-LEHD-FMK by Annexin-V-FITC/propidium iodide staining-based flow cytometry; type: functional, cell-based; settings: Homo sapiens
[29] = tested on: HGC-27; assay: Induction of apoptosis in HGC27 cells assessed as increase in necrotic cells at 2 uM co-treated with autophagy inhibitor 3-MA after 24 hrs by Annexin-V-FITC/propidium iodide staining-based flow cytometry; type: functional, cell-based; settings: Homo sapiens
[30] = tested on: HeLa; assay: Cytotoxicity against human HeLa cells after 24 hrs by MTT assay; type: functional, cell-based
[31] = Cell cycle arrest in HGC27 cells assessed as accumulation at G2/GM phase after 24 hrs at 500 nM by propidium idoide staining based flow cytometric analysis; type: functional; settings: Homo sapiens, HGC-27
[32] = tested on: HGC-27; assay: Induction of apoptosis in HGC27 cells at 8 uM after 24 hrs in presence of cathepsin-B inhibitor-3 by Annexin-V-FITC/propidium iodide staining-based flow cytometry; type: functional, cell-based; settings: Homo sapiens
[33] = tested on: HeLa; assay: Cytotoxicity against human HeLa cells assessed as inhibition of cell viability at 100 uM after 24 hrs by MTT assay; type: functional, cell-based
[34] = Cytotoxicity against human T98 cells by MTT assay; type: functional, cell-based
[35] = tested on: HGC-27; assay: Induction of apoptosis in HGC27 cells assessed as reduction in mitochondrial membrane potential at 2 and 8 uM after 24 hrs by JC-1 staining based flow cytometric analysis; type: functional, cell-based; settings: Homo sapiens
[36] = Cytotoxicity against HGC27 cells assessed as cellular ATP level after 24 hrs by SRB assay; type: functional, cell-based; settings: Homo sapiens, HGC-27, 24 h

O=c1c(Nc2cc(C(F)(F)F)cc(C(F)(F)F)c2)c(N[C@@H](c2ccccc2)C(O)(c2ccccc2)c2ccccc2)c1=O
Activity [1]: Active
Activity [2]: 24.7%
Activity [3]: Active
Activity [4]: 2.4%
IC50 [5]: 1.81 µM
Activity [6]: Dose-dependent effect
Activity [7]: Active
IC50 [8]: 9.03 µM
Activity [9]: Active
Activity [10]: inactive
Activity [11]: Active
Activity [12]: Active
IC50 [13]: 73.9 µM
IC50 [14]: 0.66 µM
Activity [15]: 60.1%
Activity [16]: Dose-dependent effect
inhibition [17]: Active
Activity [18]: Active
Activity [19]: Active
Activity [20]: Active
Activity [21]: Active
IC50 [22]: 149 µM
IC50 [23]: 60.2 µM
Activity [24]: Active
IC50 [25]: 33.4 µM
Activity [26]: Active
IC50 [27]: 70.2 µM
Activity [28]: inactive
Activity [29]: Active
IC50 [30]: 34.6 µM
Activity [31]: Active
Activity [32]: Active
inhibition [33]: Active
IC50 [34]: 7.15 µM
Activity [35]: Active
IC50 [36]: 9.74 µM

Reference: ChEMBL document CHEMBL3797180, “Squaramides with cytotoxic activity against human gastric carcinoma cells HGC-27: synthesis and mechanism of action” (Medchemcomm, 2016)
